Reference: ChEMBL document CHEMBL1795286, “A concise synthesis and antimicrobial activities of 3-polyamino-23,24-bisnorcholanes as steroid-polyamine conjugates” (2011)

Key:
Klebsiella aerogenes = experiment: Antimicrobial activity against Klebsiella aerogenes harboring beta-lactamase SHV-1 1976E mutant after 18 hrs by twofold agar dilution method; type: functional
Enterobacter cloacae [1] = experiment: Antimicrobial activity against Enterobacter cloacae ATCC 27508 after 18 hrs by twofold agar dilution method; type: functional; conditions: ATCC 27508, 18 h
Staphylococcus aureus [2] = experiment: Antimicrobial activity against Staphylococcus aureus ATCC 25923 after 18 hrs by twofold agar dilution method; type: functional; conditions: ATCC 25923, 18 h, read-out: MIC
Staphylococcus aureus [3] = experiment: Antimicrobial activity against Staphylococcus aureus 241 after 18 hrs by twofold agar dilution method; type: functional; conditions: Staphylococcus aureus, 241, 18 h; read-out: MIC
Escherichia coli [4] = experiment: Antimicrobial activity against Escherichia coli 3190Y after 18 hrs by twofold agar dilution method; type: functional
Staphylococcus aureus [5] = experiment: Antimicrobial activity against Staphylococcus aureus 77 after 18 hrs by twofold agar dilution method; type: functional; conditions: Staphylococcus aureus, 77, 18 h
Serratia marcescens [6] = experiment: Antimicrobial activity against Serratia marcescens 1826E after 18 hrs by twofold agar dilution method; type: functional
Morganella morganii = experiment: Antimicrobial activity against Morganella morganii 1375E after 18 hrs by twofold agar dilution method; type: functional
Serratia marcescens [7] = experiment: Antimicrobial activity against Serratia marcescens ATCC 27117 after 18 hrs by twofold agar dilution method; type: functional; conditions: ATCC 27117, 18 h
Bacillus licheniformis = experiment: Antimicrobial activity against Bacillus licheniformis EMR after 18 hrs by twofold agar dilution method; type: functional
Escherichia coli [8] = experiment: Antimicrobial activity against Escherichia coli ATCC 25922 after 18 hrs by twofold agar dilution method; type: functional; conditions: ATCC 25922, 18 h, read-out: MIC
Proteus vulgaris = experiment: Antimicrobial activity against Proteus vulgaris 6059 after 18 hrs by twofold agar dilution method; type: functional; conditions: Proteus vulgaris, 6059, 18 h
Klebsiella pneumoniae = experiment: Antimicrobial activity against Klebsiella pneumoniae 2011E after 18 hrs by twofold agar dilution method; type: functional
Moraxella catarrhalis [9] = experiment: Antimicrobial activity against Moraxella catarrhalis 25240 after 18 hrs by twofold agar dilution method; type: functional; conditions: Moraxella catarrhalis, 25240, 18 h
Salmonella typhimurium [10] = experiment: Antimicrobial activity against Salmonella Typhimurium ATCC 14028 after 18 hrs by two-fold agar dilution method; type: functional, Salmonella enterica subsp. enterica serovar Typhimurium; conditions: Salmonella enterica, ATCC 14028, 18 h
[11] = tested on: Acinetobacter calcoaceticus; experiment: Antimicrobial activity against Acinetobacter calcoaceticus ATCC 15473 after 18 hrs by twofold agar dilution method; type: functional; conditions: ATCC 15473, 18 h
Bacillus subtilis = experiment: Antimicrobial activity against Bacillus subtilis ATCC 6633 after 18 hrs by twofold agar dilution method; type: functional; conditions: ATCC 6633, 18 h
Escherichia coli [12] = experiment: Antimicrobial activity against Escherichia coli ATCC 10536 after 18 hrs by twofold agar dilution method; type: functional; conditions: ATCC 10536, 18 h
[13] = tested on: Staphylococcus epidermidis; experiment: Antimicrobial activity against Staphylococcus epidermidis 887E after 18 hrs by twofold agar dilution method; type: functional; conditions: read-out: MIC
Staphylococcus aureus [14] = experiment: Antimicrobial activity against Staphylococcus aureus ATCC 6538P after 18 hrs by twofold agar dilution method; type: functional
Moraxella catarrhalis [15] = experiment: Antimicrobial activity against Moraxella catarrhalis C2431 after 18 hrs by twofold agar dilution method; type: functional; conditions: C2431, 18 h
Enterococcus faecalis = experiment: Antimicrobial activity against Enterococcus faecalis ATCC 29212 after 18 hrs by twofold agar dilution method; type: functional; conditions: ATCC 29212, 18 h
Micrococcus luteus = experiment: Antimicrobial activity against Micrococcus luteus ATCC 9341 after 18 hrs by twofold agar dilution method; type: functional; conditions: ATCC 9341, 18 h, read-out: MIC
Pseudomonas aeruginosa = experiment: Antimicrobial activity against Pseudomonas aeruginosa 6065Y after 18 hrs by twofold agar dilution method; type: functional
Citrobacter freundii = experiment: Antimicrobial activity against Citrobacter freundii 8090 after 18 hrs by twofold agar dilution method; type: functional; conditions: Citrobacter freundii, 8090, 18 h
Citrobacter koseri = experiment: Antimicrobial activity against Citrobacter diversus 2046 after 18 hrs by twofold agar dilution method; type: functional; conditions: Citrobacter koseri, 2046, 18 h
Salmonella typhimurium [16] = experiment: Antimicrobial activity against Salmonella typhimurium ATCC 13311 after 18 hrs by twofold agar dilution method; type: functional, Salmonella enterica subsp. enterica serovar Typhimurium; conditions: Salmonella enterica, ATCC 13311, 18 h
Escherichia coli [17] = experiment: Antimicrobial activity against Escherichia coli 851E after 18 hrs by twofold agar dilution method; type: functional
Bacillus cereus = experiment: Antimicrobial activity against Bacillus cereus ATCC 27348 after 18 hrs by twofold agar dilution method; type: functional; conditions: ATCC 27348, 18 h
Staphylococcus aureus [18] = experiment: Antimicrobial activity against Staphylococcus aureus giorgio after 18 hrs by twofold agar dilution method; type: functional
Enterobacter cloacae [19] = experiment: Antimicrobial activity against Enterobacter cloacae P99 after 18 hrs by twofold agar dilution method; type: functional; conditions: P99, 18 h

| SMILES | MIC (Klebsiella aerogenes) [µg/mL] | MIC (Enterobacter cloacae [1]) [µg/mL] | MIC (Staphylococcus aureus [2]) [µg/mL] | MIC (Staphylococcus aureus [3]) [µg/mL] | MIC (Escherichia coli [4]) [µg/mL] | MIC (Serratia marcescens [6]) [µg/mL] | MIC (Morganella morganii) [µg/mL] | MIC (Serratia marcescens [7]) [µg/mL] | MIC (Escherichia coli [8]) [µg/mL] | MIC (Proteus vulgaris) [µg/mL] | MIC (Klebsiella pneumoniae) [µg/mL] | MIC (Salmonella typhimurium [10]) [µg/mL] | MIC [11] [µg/mL] | MIC (Bacillus subtilis) [µg/mL] | MIC [13] [µg/mL] | MIC (Staphylococcus aureus [14]) [µg/mL] | MIC (Micrococcus luteus) [µg/mL] | MIC (Pseudomonas aeruginosa) [µg/mL] | MIC (Citrobacter freundii) [µg/mL] | MIC (Citrobacter koseri) [µg/mL] | other results |
| --- | --- | --- | --- | --- | --- | --- | --- | --- | --- | --- | --- | --- | --- | --- | --- | --- | --- | --- | --- | --- | --- |
| C[C@H](CO)[C@H]1CC[C@H]2[C@@H]3CC[C@@H]4C[C@@H](NCCCNCCCCN)CC[C@]4(C)[C@H]3CC[C@]12C.Cl.Cl.Cl | > 32 | > 32 | 16 | 8 | > 32 | > 32 | > 32 | > 32 | < 32 | > 32 | > 32 | > 32 | > 32 | 8 | 32 | 8 | 8 | > 32 | > 32 | > 32 | MIC (Staphylococcus aureus [5]): > 32 µg/mL; MIC (Bacillus licheniformis; read-out: MIC): 32 µg/mL; MIC (Moraxella catarrhalis [9]): > 32 µg/mL; MIC (Escherichia coli [12]): > 32 µg/mL; MIC (Moraxella catarrhalis [15]): > 32 µg/mL; MIC (Enterococcus faecalis; read-out: MIC): < 32 µg/mL; MIC (Salmonella typhimurium [16]): > 32 µg/mL; MIC (Escherichia coli [17]): > 32 µg/mL; MIC (Bacillus cereus; read-out: MIC): 32 µg/mL; MIC (Staphylococcus aureus [18]): 16 µg/mL; MIC (Enterobacter cloacae [19]): > 32 µg/mL |
| C[C@H](CO)[C@H]1CC[C@H]2[C@@H]3CC[C@H]4C[C@@H](NCCCNCCCCN)CC[C@]4(C)[C@H]3CC[C@]12C.Cl.Cl.Cl | > 32 | > 32 | 16 | 8 | > 32 | > 32 | > 32 | > 32 | < 32 | > 32 | > 32 | > 32 | > 32 | 8 | 16 | 8 | 16 | > 32 | > 32 | > 32 | MIC (Staphylococcus aureus [5]; read-out: MIC): 32 µg/mL; MIC (Bacillus licheniformis): > 32 µg/mL; MIC (Moraxella catarrhalis [9]; read-out: MIC): 32 µg/mL; MIC (Escherichia coli [12]; read-out: MIC): < 32 µg/mL; MIC (Moraxella catarrhalis [15]; read-out: MIC): 32 µg/mL; MIC (Enterococcus faecalis): > 32 µg/mL; MIC (Salmonella typhimurium [16]): > 32 µg/mL; MIC (Escherichia coli [17]): > 32 µg/mL; MIC (Bacillus cereus): > 32 µg/mL; MIC (Staphylococcus aureus [18]): 16 µg/mL; MIC (Enterobacter cloacae [19]): > 32 µg/mL |
| C[C@H](CO)[C@H]1CC[C@H]2[C@@H]3CC[C@H]4C[C@H](NCCCNCCCCN)CC[C@]4(C)[C@H]3CC[C@]12C.Cl.Cl.Cl | > 32 | > 32 | 16 | 4 | > 32 | > 32 | > 32 | > 32 | 32 | > 32 | > 32 | > 32 | > 32 | 8 | 16 | 4 | 8 | > 32 | > 32 | > 32 | MIC (Staphylococcus aureus [5]; read-out: MIC): 4 µg/mL; MIC (Bacillus licheniformis; read-out: MIC): 16 µg/mL; MIC (Moraxella catarrhalis [9]; read-out: MIC): < 32 µg/mL; MIC (Escherichia coli [12]; read-out: MIC): 32 µg/mL; MIC (Moraxella catarrhalis [15]): > 32 µg/mL; MIC (Enterococcus faecalis; read-out: MIC): 32 µg/mL; MIC (Salmonella typhimurium [16]): > 32 µg/mL; MIC (Escherichia coli [17]): > 32 µg/mL; MIC (Bacillus cereus): > 32 µg/mL; MIC (Staphylococcus aureus [18]): 8 µg/mL; MIC (Enterobacter cloacae [19]): > 32 µg/mL |
